Several values for one entry are separate records, joined by “and”; a condition that tells them apart may be missing. Equal values may be shown once. Inconclusive results and toxic doses are left out.
System: L1210 leukemia ip in BDF1 mice, survival T/C
Assay: NCI In Vivo Anticancer Drug Screen. Data for tumor model L1210 Leukemia (intraperitoneal) in B6D2F1 (BDF1) mice
Settings: higher = longer survival
Procedure, shortened: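 Mice bearing the transplanted tumor received compound or vehicle. Survival of the treated group was divided by that of the vehicle-treated control group to give the ratio.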

[1] = endpoint: mean survival time, dose: 100.0 mg/kg/injection, schedule: Q01DX001 (ip), vehicle: saline
[2] = endpoint: mean survival time, dose: 150.0 mg/kg/injection, schedule: Q01DX001 (ip), vehicle: saline
[3] = endpoint: mean survival time, dose: 100.0 mg/kg/injection, schedule: Q04DX003 (ip), vehicle: saline
[4] = endpoint: mean survival time, dose: 200.0 mg/kg/injection, schedule: Q04DX003 (ip), vehicle: saline
[5] = endpoint: mean survival time, dose: 400.0 mg/kg/injection, schedule: Q04DX003 (ip), vehicle: saline
[6] = endpoint: mean survival time, dose: 100.0 mg/kg/injection, schedule: Q01DX001 (ip), vehicle: saline with Tween-80
[7] = endpoint: mean survival time, dose: 100.0 mg/kg/injection, schedule: Q04DX002 (ip), vehicle: Klucel (hydroxypropylcellulose) (HPC)
[8] = endpoint: mean survival time, dose: 200.0 mg/kg/injection, schedule: Q04DX002 (ip), vehicle: Klucel (hydroxypropylcellulose) (HPC)
[9] = endpoint: mean survival time, dose: 400.0 mg/kg/injection, schedule: Q04DX002 (ip), vehicle: Klucel (hydroxypropylcellulose) (HPC)
[10] = endpoint: mean survival time, dose: 50.0 mg/kg/injection, schedule: Q01DX009 (ip), vehicle: saline
[11] = endpoint: mean survival time, dose: 100.0 mg/kg/injection, schedule: Q01DX009 (ip), vehicle: saline

COc1cc(N(CCCl)CCCl)c(OC)cc1/C=N\NC(=O)CN(C)C
T/C (endpoint: mean survival time, dose: 2.25 mg/kg/injection, schedule: Q01DX015 (ip), vehicle: saline): 105 % of control | T/C (endpoint: mean survival time, dose: 4.5 mg/kg/injection, schedule: Q01DX015 (ip), vehicle: saline): 108 % of control | T/C (endpoint: mean survival time, dose: 6.25 mg/kg/injection, schedule: Q01DX015 (ip), vehicle: saline): 119 % of control | T/C (endpoint: mean survival time, dose: 9.0 mg/kg/injection, schedule: Q01DX015 (ip), vehicle: saline): 116 % of control | T/C (endpoint: mean survival time, dose: 10.5 mg/kg/injection, schedule: Q01DX015 (ip), vehicle: saline): 114 % of control | T/C (endpoint: mean survival time, dose: 12.5 mg/kg/injection, schedule: Q01DX015 (ip), vehicle: saline): 115 % of control | T/C (endpoint: mean survival time, dose: 18.0 mg/kg/injection, schedule: Q01DX015 (ip), vehicle: saline): 111 % of control and 116 % of control | T/C (endpoint: mean survival time, dose: 25.0 mg/kg/injection, schedule: Q01DX015 (ip), vehicle: saline): 96 % of control | T/C (endpoint: mean survival time, dose: 30.0 mg/kg/injection, schedule: Q01DX015 (ip), vehicle: saline): 88 % of control | T/C (endpoint: mean survival time, dose: 36.0 mg/kg/injection, schedule: Q01DX015 (ip), vehicle: saline): 94 % of control | T/C (endpoint: mean survival time, dose: 44.7 mg/kg/injection, schedule: Q01DX001 (ip), vehicle: saline): 120 % of control | T/C (endpoint: mean survival time, dose: 50.0 mg/kg/injection, schedule: Q01DX015 (ip), vehicle: saline): 90 % of control | T/C [1]: 162 % of control | T/C [2]: 124 % of control

CCCCCCOC(=O)C(N)Cc1ccc(N(CCCl)CCCl)cc1 (centres undefined)
T/C (endpoint: mean survival time, dose: 2.8 mg/kg/injection, schedule: Q01DX009 (ip), vehicle: other): 110 % of control | T/C (endpoint: mean survival time, dose: 5.6 mg/kg/injection, schedule: Q01DX001 (ip), vehicle: other): 110 % of control | T/C (endpoint: mean survival time, dose: 5.6 mg/kg/injection, schedule: Q01DX009 (ip), vehicle: other): 106 % of control | T/C (endpoint: mean survival time, dose: 11.25 mg/kg/injection, schedule: Q01DX001 (ip), vehicle: other): 110 % of control | T/C (endpoint: mean survival time, dose: 11.25 mg/kg/injection, schedule: Q01DX009 (ip), vehicle: other): 116 % of control | T/C (endpoint: mean survival time, dose: 22.5 mg/kg/injection, schedule: Q01DX001 (ip), vehicle: other): 121 % of control

O=C(CSc1ccc([N+](=O)[O-])cn1)c1ccc(Br)cc1
T/C [3]: 102 % of control | T/C [4]: 98 % of control | T/C [5]: 102 % of control

NCc1ccc(OCc2nc(N)nc(N)c2-c2ccc(Cl)cc2)cc1
T/C (endpoint: mean survival time, dose: 25.0 mg/kg/injection, schedule: Q01DX001 (ip), vehicle: saline with Tween-80): 97 % of control | T/C (endpoint: mean survival time, dose: 50.0 mg/kg/injection, schedule: Q01DX001 (ip), vehicle: saline with Tween-80): 87 % of control | T/C [6]: 95 % of control and 96 % of control

O=C(C[n+]1ccccc1)N/N=C/c1ccccc1Cl
T/C (endpoint: mean survival time, dose: 25.0 mg/kg/injection, schedule: Q01DX009 (ip), vehicle: saline with Tween-80): 98 % of control | T/C (endpoint: mean survival time, dose: 50.0 mg/kg/injection, schedule: Q01DX009 (ip), vehicle: saline with Tween-80): 98 % of control | T/C (endpoint: mean survival time, dose: 100.0 mg/kg/injection, schedule: Q01DX009 (ip), vehicle: saline with Tween-80): 100 % of control

O=C1OCC2(CO)SC(c3ccccc3)NC12 (centres undefined)
T/C [3]: 98 % of control | T/C [4]: 92 % of control | T/C [5]: 98 % of control

O=C1c2c(O)cccc2C(C2OC(CO)C(O)C(O)C2O)c2cc(CO)cc(O)c21 (centres undefined)
T/C [1]: 98 % of control | T/C (endpoint: mean survival time, dose: 200.0 mg/kg/injection, schedule: Q01DX001 (ip), vehicle: saline): 98 % of control | T/C (endpoint: mean survival time, dose: 400.0 mg/kg/injection, schedule: Q01DX001 (ip), vehicle: saline): 104 % of control

CCCCCC(CN(C)C)C(O)CCc1ccc(Cl)c(Cl)c1 (centres undefined)
T/C (endpoint: mean survival time, dose: 25.0 mg/kg/injection, schedule: Q04DX002 (ip), vehicle: Klucel (hydroxypropylcellulose) (HPC)): 93 % of control | T/C (endpoint: mean survival time, dose: 50.0 mg/kg/injection, schedule: Q04DX002 (ip), vehicle: Klucel (hydroxypropylcellulose) (HPC)): 93 % of control | T/C [7]: 104 % of control | T/C [8]: 88 % of control | T/C [9]: 117 % of control

c1ccc(P2(c3ccccc3)=NP(c3ccccc3)(c3ccccc3)=NP(c3ccccc3)(c3ccccc3)=N2)cc1
T/C [10]: 89 % of control | T/C [11]: 86 % of control | T/C (endpoint: mean survival time, dose: 200.0 mg/kg/injection, schedule: Q01DX009 (ip), vehicle: saline): 88 % of control

Cc1c(Cl)ccc2c1S(=O)(=O)c1cccc(Cl)c1-2
T/C [7]: 104 % of control | T/C [8]: 96 % of control | T/C [9]: 100 % of control

O=C(Nc1cccc(Cl)c1Cl)Oc1cccc2ccccc12
T/C [7]: 101 % of control | T/C [8]: 108 % of control | T/C [9]: 114 % of control

Nc1ccc(CCc2nc(N)nc(N)c2-c2ccc(Cl)cc2)cc1
T/C (endpoint: mean survival time, dose: 100.0 mg/kg/injection, schedule: Q04DX003 (ip), vehicle: Klucel (hydroxypropylcellulose) (HPC)): 106 % of control | T/C (endpoint: mean survival time, dose: 200.0 mg/kg/injection, schedule: Q04DX003 (ip), vehicle: Klucel (hydroxypropylcellulose) (HPC)): 104 % of control | T/C (endpoint: mean survival time, dose: 400.0 mg/kg/injection, schedule: Q04DX003 (ip), vehicle: Klucel (hydroxypropylcellulose) (HPC)): 101 % of control

O=C(O)CCc1ccc(-c2ccccc2)[nH]1
T/C (endpoint: mean survival time, dose: 100.0 mg/kg/injection, schedule: Q01DX001 (ip), vehicle: Klucel (hydroxypropylcellulose) (HPC)): 106 % of control | T/C (endpoint: mean survival time, dose: 200.0 mg/kg/injection, schedule: Q01DX001 (ip), vehicle: Klucel (hydroxypropylcellulose) (HPC)): 104 % of control | T/C (endpoint: mean survival time, dose: 400.0 mg/kg/injection, schedule: Q01DX001 (ip), vehicle: Klucel (hydroxypropylcellulose) (HPC)): 106 % of control

CCCCCCCCCCC(=O)N(CCC)CCC
T/C (endpoint: mean survival time, dose: 100.0 mg/kg/injection, schedule: Q01DX009 (ip), vehicle: carboxymethylcellulose (CMC)): 97 % of control | T/C (endpoint: mean survival time, dose: 100.0 mg/kg/injection, schedule: Q04DX002 (ip), vehicle: carboxymethylcellulose (CMC)): 91 % of control | T/C (endpoint: mean survival time, dose: 200.0 mg/kg/injection, schedule: Q01DX009 (ip), vehicle: carboxymethylcellulose (CMC)): 93 % of control and 92 % of control | T/C (endpoint: mean survival time, dose: 200.0 mg/kg/injection, schedule: Q04DX002 (ip), vehicle: carboxymethylcellulose (CMC)): 93 % of control | T/C (endpoint: mean survival time, dose: 400.0 mg/kg/injection, schedule: Q01DX009 (ip), vehicle: carboxymethylcellulose (CMC)): 86 % of control | T/C (endpoint: mean survival time, dose: 400.0 mg/kg/injection, schedule: Q04DX002 (ip), vehicle: carboxymethylcellulose (CMC)): 88 % of control

Cn1cc(C(=Nc2ccccc2)Nc2ccccc2)c2ccccc21
T/C (endpoint: mean survival time, dose: 75.0 mg/kg/injection, schedule: Q01DX001 (ip), vehicle: saline): 94 % of control | T/C [2]: 94 % of control | T/C (endpoint: mean survival time, dose: 300.0 mg/kg/injection, schedule: Q01DX001 (ip), vehicle: saline): 89 % of control

N#CCCNc1ccc(NC(=O)C(F)(F)F)cc1
T/C (endpoint: mean survival time, dose: 25.0 mg/kg/injection, schedule: Q01DX009 (ip), vehicle: saline): 92 % of control | T/C [10]: 92 % of control | T/C [11]: 94 % of control | T/C [3]: 87 % of control

CCOC(=O)c1[nH]c(-c2ccccc2)nc1/N=N/N(C)C
T/C (endpoint: median survival time, dose: 25.0 mg/kg/injection, schedule: Q01DX009 (ip), vehicle: Klucel (hydroxypropylcellulose) (HPC)): 122 % of control | T/C (endpoint: median survival time, dose: 200.0 mg/kg/injection, schedule: Q01DX009 (ip), vehicle: Klucel (hydroxypropylcellulose) (HPC)): 111 % of control

C[n+]1ccnc2ccccc21
T/C (endpoint: mean survival time, dose: 10.0 mg/kg/injection, schedule: Q01DX009 (ip), vehicle: saline with Tween-80): 105 % of control | T/C (endpoint: mean survival time, dose: 20.0 mg/kg/injection, schedule: Q01DX009 (ip), vehicle: saline with Tween-80): 105 % of control | T/C (endpoint: mean survival time, dose: 40.0 mg/kg/injection, schedule: Q01DX009 (ip), vehicle: saline with Tween-80): 104 % of control

Clc1ccc(Nc2ncnc3ncn(Cc4ccccc4)c23)cc1
T/C (endpoint: mean survival time, dose: 100.0 mg/kg/injection, schedule: Q01DX001 (ip), vehicle: other): 89 % of control | T/C (endpoint: mean survival time, dose: 200.0 mg/kg/injection, schedule: Q01DX001 (ip), vehicle: other): 93 % of control | T/C (endpoint: mean survival time, dose: 400.0 mg/kg/injection, schedule: Q01DX001 (ip), vehicle: other): 101 % of control

CCCCCCCCCCCC[N+]1(C)CC[N+](C)(CCCCCCCCCCCC)CC1 (centres undefined)
T/C (endpoint: mean survival time, dose: 100.0 mg/kg/injection, schedule: Q04DX002 (ip), vehicle: other): 105 % of control | T/C (endpoint: mean survival time, dose: 200.0 mg/kg/injection, schedule: Q04DX002 (ip), vehicle: other): 101 % of control

C[N+](C)(CC(=O)Nc1ccc(Cl)c(Cl)c1)CC(=O)c1ccc(Cl)c(Cl)c1
T/C (endpoint: mean survival time, dose: 100.0 mg/kg/injection, schedule: Q04DX003 (ip), vehicle: saline with Tween-80): 100 % of control | T/C (endpoint: mean survival time, dose: 200.0 mg/kg/injection, schedule: Q04DX003 (ip), vehicle: saline with Tween-80): 100 % of control | T/C (endpoint: mean survival time, dose: 400.0 mg/kg/injection, schedule: Q04DX003 (ip), vehicle: saline with Tween-80): 102 % of control

CC(C)(C)C1=CC(=O)C(Cl)(C(C)(C)C)C(Cl)C1=O (centres undefined)
T/C [6]: 97 % of control | T/C (endpoint: mean survival time, dose: 200.0 mg/kg/injection, schedule: Q01DX001 (ip), vehicle: saline with Tween-80): 90 % of control

CN(C)Cc1cc(Cl)ccc1O
T/C [7]: 100 % of control

Reference: PubChem BioAssay AID248 (DTP/NCI, 2004)
